Experimental data reported in ChEMBL document CHEMBL2407043, “Hydantoin based inhibitors of MMP13--discovery of AZD6605” (Bioorg Med Chem Lett, 2013).
Values after ≈ are worked out from the molar mass of the structure shown. Values belong to the molecule of their own block, whether it stands above or below them.

Tests used:
[1] = Volume of distribution at steady state in rat at 2 mg/kg, iv and 5 mg/kg, po; assay type: ADME, organism-based; settings: in vivo, read-out: Vdss
[2] = Clearance in rat at 2 mg/kg, iv; assay type: ADME, organism-based; set-up: dose 2 mg/kg, route intravenous; settings: in vivo
[3] = Half life in rat; assay type: ADME, organism-based; settings: in vivo
[4] = Thermodynamic solubility of the compound in phosphate buffer at pH 7.4 at 25 degC after 24 hrs; settings: read-out: Therm_solubility
Cytochrome P450 3A4 = Cytochrome P450 3A4 (Homo sapiens, UniProt P08684); assay: Inhibition of human CYP3A4; assay type: ADME
Cavia porcellus = assay: Inhibition of cartilage loss in Dunkin Hartley guinea pig spontaneous osteoarthritis model at 0.06 mg/kg/day, sc after 12 weeks (reference value: 23%); assay type: functional; settings: 2016 h, route subcutaneous
[5] = Oral bioavailability in rat at 3 to 10 mg/kg; assay type: ADME, organism-based; settings: in vivo
in vitro [6] = settings: human, liver microsomes
[7] = Clearance in rat at 2 mg/kg, iv and 5 mg/kg, po; assay type: ADME, organism-based; settings: in vivo
[8] = Half life in dog at 0.5 mg/kg, iv and 1 mg/kg, po; assay type: ADME, organism-based, Canis lupus familiaris; settings: in vivo
[9] = Oral bioavailability in rat at 5 mg/kg; assay type: ADME, organism-based; settings: in vivo
physchem = settings: buffer, pH 7.4
[10] = Half life in rat at 2 mg/kg, iv and 5 mg/kg, po; assay type: ADME, organism-based; settings: in vivo
[11] = Apparent permeability across basolateral to apical side in human Caco2 cells at 10 uM; assay type: ADME, cell-based; settings: Caco-2
[12] = Volume of distribution at steady state in dog at 0.5 mg/kg, iv and 1 mg/kg, po; assay type: ADME, organism-based, Canis lupus familiaris; settings: in vivo, read-out: Vdss
[13] = Intrinsic clearance in human hepatocytes measured per 10^6 cells; assay type: ADME, cell-based, Hepatocyte; settings: read-out: CLH
[14] = Solubility of compound in fasted state simulated intestinal fluid; assay type: physicochemical
[15] = Oral bioavailability in dog at 1 mg/kg; assay type: ADME, organism-based, Canis lupus familiaris; settings: in vivo
[16] = Fraction unbound in dog plasma; assay type: ADME, cell-free, Canis lupus familiaris
in vitro [17] = settings: human, Caco-2
[18] = Clearance in dog at 0.5 mg/kg, iv and 1 mg/kg, po; assay type: ADME, organism-based, Canis lupus familiaris; settings: in vivo
[19] = Fraction unbound in rat plasma; assay type: ADME, cell-free
[20] = Fraction unbound in human plasma; assay type: ADME, cell-free
[21] = target: Matrix metalloproteinase-14 (Homo sapiens, UniProt P50281)

Cytochrome P450 3A4, sequence (P08684 whole entry): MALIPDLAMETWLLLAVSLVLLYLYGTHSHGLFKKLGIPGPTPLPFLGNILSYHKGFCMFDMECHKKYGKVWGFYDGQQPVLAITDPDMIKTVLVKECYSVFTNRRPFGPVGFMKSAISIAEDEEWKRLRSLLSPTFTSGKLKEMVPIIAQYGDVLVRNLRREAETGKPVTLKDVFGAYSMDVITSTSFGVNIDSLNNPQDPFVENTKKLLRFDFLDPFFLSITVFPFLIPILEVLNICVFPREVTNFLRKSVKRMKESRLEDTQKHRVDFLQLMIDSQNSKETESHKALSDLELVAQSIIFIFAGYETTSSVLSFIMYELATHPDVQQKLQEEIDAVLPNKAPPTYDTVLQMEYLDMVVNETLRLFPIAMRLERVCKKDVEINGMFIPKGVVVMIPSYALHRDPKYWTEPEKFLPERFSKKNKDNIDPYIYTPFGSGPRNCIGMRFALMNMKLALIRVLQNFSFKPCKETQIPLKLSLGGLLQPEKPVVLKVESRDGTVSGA

SMILES: O=CN(O)[C@@H](CCCc1ncccn1)CS(=O)(=O)N1CCN(c2ccc(C(F)(F)F)cn2)CC1
- IC50 (Cytochrome P450 3A4): 1000 nM

SMILES: O=CN(O)[C@@H](CCc1ncccn1)CS(=O)(=O)N1CCN(c2ccc(OCC(F)(F)F)cn2)CC1
- inhibition in vivo at 0.06 mg/kg/day (Cavia porcellus): 76%

SMILES: C[C@]1(CS(=O)(=O)N2CCC(Oc3ccc(OCc4ccccc4)cc3)CC2)NC(=O)NC1=O
- solubility thermodynamic at 24 h [4]: < 0.8 µM

SMILES: C[C@]1(CS(=O)(=O)N2CCC(Oc3ccc(OCc4ccc(S(C)(=O)=O)cc4)cc3)CC2)NC(=O)NC1=O
- IC50 [21]: 62 nM
- solubility thermodynamic at 24 h [4]: 3.1 µM (≈ 1.71 µg/mL)

SMILES: C[C@]1(CS(=O)(=O)N2CCC(Oc3ccc(OCc4ccc(C#N)cc4)cc3)CC2)NC(=O)NC1=O
- solubility thermodynamic at 24 h [4]: 1.8 µM (≈ 0.897 µg/mL)

SMILES: C[C@]1(CS(=O)(=O)N2CCC(Oc3ccc(OCc4cccc(C#N)c4)cc3)CC2)NC(=O)NC1=O
- solubility thermodynamic at 24 h [4]: 4.4 µM (≈ 2.19 µg/mL)

SMILES: COc1ccc(COc2ccc(OC3CCN(S(=O)(=O)C[C@@]4(C)NC(=O)NC4=O)CC3)cc2)cc1
- IC50 [21]: 1080 nM
- solubility thermodynamic at 24 h [4]: 1.2 µM (≈ 0.604 µg/mL)

SMILES: C[C@]1(CS(=O)(=O)N2CCC(Oc3ccc(OCc4ccc(F)cc4)cc3)CC2)NC(=O)NC1=O
- IC50 [21]: 7730 nM

Now from value to molecule:

- Vd [1]: 0.5 L/kg
- clearance [2]: 9.4 mL/min/kg
- half-life [3]: 3.3 h
- solubility thermodynamic at 24 h [4]: 3.1 µM (≈ 1.61 µg/mL)
SMILES: C[C@]1(CS(=O)(=O)N2CCN(c3ncc(OCc4cc(C(F)(F)F)no4)cn3)CC2)NC(=O)NC1=O

- solubility thermodynamic at 24 h [4]: 560 µM (≈ 266 µg/mL)
SMILES: C[C@]1(CS(=O)(=O)N2CCC(Oc3ccc(OCc4ncccn4)cc3)CC2)NC(=O)NC1=O

- solubility thermodynamic at 24 h [4]: 32 µM (≈ 15.3 µg/mL)
SMILES: Cc1cc(COc2cnc(N3CCN(S(=O)(=O)C[C@@]4(C)NC(=O)NC4=O)CC3)nc2)n(C)n1

- solubility thermodynamic at 24 h [4]: 49 µM (≈ 22.9 µg/mL)
SMILES: C[C@]1(CS(=O)(=O)N2CCN(c3ncc(OCc4cncs4)cn3)CC2)NC(=O)NC1=O

- Vd [1]: 0.5 L/kg
- bioavailability [5]: 37%
- clearance [2]: 13.4 mL/min/kg
- half-life [3]: 0.67 h
- solubility thermodynamic at 24 h [4]: 13 µM (≈ 6.05 µg/mL)
- microsomal CLint (in vitro [6]): < 2 µL/min/mg
SMILES: Cc1cc(COc2cnc(N3CCN(S(=O)(=O)C[C@@]4(C)NC(=O)NC4=O)CC3)nc2)on1

- microsomal CLint (in vitro [6]): < 2 µL/min/mg
SMILES: CCc1cc(COc2cnc(N3CCN(S(=O)(=O)C[C@@]4(C)NC(=O)NC4=O)CC3)nc2)on1

- clearance [7]: 6.3 mL/min/kg
- half-life [8]: 10.6 h
- bioavailability [9]: 100%
- Vd [1]: 1.3 L/kg
- logD (physchem): 2.3
- half-life [10]: 2.6 h
- Papp B→A at 10 µM [11]: 52 ×10⁻⁶ cm/s
- Vd [12]: 1.2 L/kg
- bioavailability [5]: 100%
- hepatocyte CLint [13]: < 2 µL/min/1e6 cells
- solubility [14]: 26.5 µM (≈ 13.7 µg/mL)
- bioavailability [15]: 51%
- fraction unbound [16]: 0.08
- Papp A→B at 10 µM (in vitro [17]): 9 ×10⁻⁶ cm/s
- clearance [2]: 6.3 mL/min/kg
- half-life [3]: 2.6 h
- solubility thermodynamic at 24 h [4]: 11 µM (≈ 5.7 µg/mL)
- clearance [18]: 1.3 mL/min/kg
- fraction unbound [19]: 0.08
- microsomal CLint (in vitro [6]): 7 µL/min/mg
- fraction unbound [20]: 0.06
SMILES: C[C@]1(CS(=O)(=O)N2CCN(c3ncc(OCc4ccc(C(F)(F)F)o4)cn3)CC2)NC(=O)NC1=O

- Vd [1]: 0.5 L/kg
- bioavailability [5]: 6%
- clearance [2]: 97.3 mL/min/kg
- half-life [3]: 0.23 h
- solubility thermodynamic at 24 h [4]: 14 µM (≈ 6.9 µg/mL)
- microsomal CLint (in vitro [6]): 16 µL/min/mg
SMILES: C[C@]1(CS(=O)(=O)N2CCN(c3ncc(OCc4cnc(C#N)s4)cn3)CC2)NC(=O)NC1=O

- IC50 [21]: > 10000 nM
SMILES: CCCOc1ccc(OC2CCN(S(=O)(=O)C[C@@]3(C)NC(=O)NC3=O)CC2)cc1

- solubility thermodynamic at 24 h [4]: 130 µM (≈ 61.7 µg/mL)
SMILES: C[C@]1(CS(=O)(=O)N2CCC(Oc3ccc(OCc4ccncc4)cc3)CC2)NC(=O)NC1=O
